Measured values: patent US8906865B2, “Treatment of inflammation and/or endotoxic shock” (ISIS Innovation Limited, priority 2007, dated 2014)

Test system: PMΦ (peritoneal macrophages)
Experiment: Secondary chemotaxis assay towards conditioned media from treated macrophages
Type: cell-based, mouse
Conditions: relative to LPS/IFNγ conditioned medium
Excerpt: Given the well established role of MΦ-derived chemoattractants in the recruitment of immune cells during inflammation (Glabinski, A. R., et al., (1998). Neuroimmunomodulation 5:166-171; Huang, D. J. et al., (2001). J. Exp. Med. 193:713-726), conditioned media was used from untreated MΦ and MΦ treated with chemerin+LPS/IFNγ, C15+LPS/IFNγ and LPS/IFNγ alone in chemotaxis assays to assess how suppression of MΦ activation by chemerin and the synthetic C-terminal peptide, C15 might affect further MΦ recruitment (See FIG. 4H).
Conditioned media from macrophages treated with C140+LPS/IFNγ, C15m+LPS/IFNγ, C17m+LPS/IFNγ and LPS/IFNγ alone were used in secondary chemotaxis assays to assess the potential pathophysiological repercussions associated with suppression of macrophage activation by C140 and its C-terminal peptides.
Cells (0.5×10^6) were allowed to migrate towards chemoattractant (Chemerin peptides) or conditioned media in the bottom well of a modified Boyden chamber over 4 h. Serum free media (SFM) was used as a negative control. Filters were fixed in 4% formalin, then nuclei were stained with DAPI and visualised. Bar graphs indicate mean Migration Index (Chemoattractant % threshold area/SFM % threshold area)±SEM for each treatment group. Each bar represents at least triplicate wells and 6 pictures taken per treatment. p<0.001 ***; p<0.01 ** significance is relative to LPS/IFNγ conditioned media unless otherwise stated. AB refers to anti-murine Chemerin antibody.
Cell migration was assessed by use of transwell membranes (ChemoTX, 6-mm diameter, 8-μm pore size). Briefly, BioGEL-elicited cells were harvested and placed on transwell membranes (250 000 cells/membrane in RPMI supplemented with 25 mM Hepes and 0.1% bovine serum albumin. Cells were allowed to migrate toward Chemerin peptides (1 pM-100 nM) for 4 h. Signal transduction via G protein-coupled receptors was blocked by preincubating cells with pertussis toxin (PTX, 200 ng/ml, Sigma-Aldrich) for 30 mins before placing cells on transwell membranes. Migrated cells on the underside of membranes were fixed (3% formaldehyde) and stained with DAPI. Migration was quantified as total pixel count of DAPI stained nuclei under the confocal microscope (2 photos/membrane and a minimum of 3 replicate wells per treatment). Images were analyzed using Metamorph Offline software to determine percentage threshold areas (TA) occupied by migrated cells. Migration indices were obtained by dividing treatment TA by serum-free media TA. For secondary chemotaxis assays ChemoTx 3-mm diameter, 8-μm pore membranes were used with 50 000 cells/membrane.

Row | Molecule | Macrophage chemotaxis towards conditioned media from treated + LPS/IFNγ macrophages (FIG. 5) | Reduction of MΦ chemotaxis towards conditioned media from treated + LPS/IFNγ macrophages (FIG. 4H) [%]
1 | AGEDPHGYFLPGQFA (listed as Mus sp.) [C15] | reduced chemotaxis | 55
2 | AGEDPHGYFLPGQFAFS (listed as Mus sp.) [C17m] | reduced chemotaxis | 
3 | Chemerin: 140 amino acid mouse Chemerin protein of Sequence ID no: 34 (protein, listed as Mus sp.) TVGTEPELSETQRRSLQVALEEFHKHPPVQLAFQEIGVDRAEEVLFSAGTFVRLEFKLQQTNCPKKDWKKPECTIKPNGRRRKCLACIKMDPKGKILGRIVHCPILKQGPQDPQELQCIKIAQAGEDPHGYFLPGQFAFS | reduced chemotaxis | 49
